IC50 data for 34 compounds are collected here from patent US20240059677A1, “SUBSTITUTED PYRIMIDINE DERIVATIVES AS NICOTINIC ACETYLCHOLINESTERASE RECEPTOR ALPHA 6 MODULATOR” (priority 2020, published 2024).

Molecules are shown by their SMILES.

T1 sequence (Q05901 25-458 V273S): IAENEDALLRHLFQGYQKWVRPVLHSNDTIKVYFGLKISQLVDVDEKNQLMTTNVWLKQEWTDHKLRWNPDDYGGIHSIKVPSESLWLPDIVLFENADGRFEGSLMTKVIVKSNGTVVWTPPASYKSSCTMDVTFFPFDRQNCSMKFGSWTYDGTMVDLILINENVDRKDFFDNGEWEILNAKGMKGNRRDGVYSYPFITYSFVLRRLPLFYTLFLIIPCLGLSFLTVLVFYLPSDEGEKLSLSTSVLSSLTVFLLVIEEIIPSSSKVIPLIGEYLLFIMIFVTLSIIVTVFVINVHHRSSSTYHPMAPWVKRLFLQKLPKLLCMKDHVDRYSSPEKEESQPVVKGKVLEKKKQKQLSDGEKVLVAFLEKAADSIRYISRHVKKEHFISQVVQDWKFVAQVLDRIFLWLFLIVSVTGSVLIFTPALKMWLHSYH
T1 sequence (P17787 26-502, stated change not applied, further chain): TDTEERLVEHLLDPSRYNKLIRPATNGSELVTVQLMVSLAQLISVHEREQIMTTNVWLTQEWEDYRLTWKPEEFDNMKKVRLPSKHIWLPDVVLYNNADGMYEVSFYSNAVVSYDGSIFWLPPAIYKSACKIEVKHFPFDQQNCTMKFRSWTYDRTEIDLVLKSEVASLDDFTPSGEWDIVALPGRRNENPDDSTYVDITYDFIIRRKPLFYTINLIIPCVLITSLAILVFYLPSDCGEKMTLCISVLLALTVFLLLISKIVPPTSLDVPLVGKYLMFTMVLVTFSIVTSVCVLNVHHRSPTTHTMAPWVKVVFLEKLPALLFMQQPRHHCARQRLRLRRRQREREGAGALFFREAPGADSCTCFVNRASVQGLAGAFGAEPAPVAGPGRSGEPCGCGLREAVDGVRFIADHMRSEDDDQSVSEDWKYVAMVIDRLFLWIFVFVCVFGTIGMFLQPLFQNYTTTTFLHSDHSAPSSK
T1 sequence (Q15825+P32297 fused with the stated changes): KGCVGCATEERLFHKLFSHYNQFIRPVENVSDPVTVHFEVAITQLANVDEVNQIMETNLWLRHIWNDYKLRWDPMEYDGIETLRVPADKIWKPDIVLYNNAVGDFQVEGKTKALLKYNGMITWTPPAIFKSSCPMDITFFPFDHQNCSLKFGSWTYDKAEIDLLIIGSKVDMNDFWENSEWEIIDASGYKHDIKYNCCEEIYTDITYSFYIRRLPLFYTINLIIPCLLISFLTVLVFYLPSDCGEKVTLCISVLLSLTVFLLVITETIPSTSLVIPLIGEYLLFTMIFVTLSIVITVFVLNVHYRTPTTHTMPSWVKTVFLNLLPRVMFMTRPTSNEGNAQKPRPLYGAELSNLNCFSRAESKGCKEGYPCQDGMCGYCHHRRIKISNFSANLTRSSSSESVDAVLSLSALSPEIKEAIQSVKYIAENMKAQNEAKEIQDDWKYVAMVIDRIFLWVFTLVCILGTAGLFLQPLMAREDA

The first assay has as its target T1, human nAChRα6-α3 chimera, in addition to β2 and β3^V273S subunits (Homo sapiens, UniProt P32297+Q15825).
T1 construct: expressed in transfected cells
Briefly: fluorescence-based calcium assay: inhibition of nicotine stimulated nAChRα6 activity (FLIPR). Particulars: HEK cell line stably expressing the receptor; 10 min pre-incubation, nicotine EC80; 10-point curve, duplicate wells; read-out: IC50. The method in brief: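 HEK cells stably expressing the human α6-α3 chimera with β2 and β3^V273S were loaded with calcium dye at 30° C. Compounds were pre-incubated for 10 min before nicotine at EC80, and the fluorescence change was read on a FLIPR. Ten-point half-log concentration-response, duplicate wells.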
Regarding `COc1ccc(-c2nnc(NCCC3CCCN3C)nc2C)c(F)c1` (stereo not shown) [Example 23, 6-(2-fluoro-4-methoxyphenyl)-5-methyl-N-(2-(1-methylpyrrolidin-2-yl)ethyl)-1,2,4-triazin-3-amine], the IC50 was determined as 0.233 µM.

As to `COc1ccc(-c2cnc(NCc3cncn3C)nc2C)c(Cl)c1` [Example 63, 5-(2-chloro-4-methoxyphenyl)-4-methyl-N-((1-methyl-1H-imidazol-5-yl)methyl)pyrimidin-2-amine], the IC50 worked out at 0.141 µM. On the same count and under the same terms, as for `Cc1nc(NCC2C(F)CCN2C)ncc1-c1ccc(F)cc1F` (single isomer, unassigned) [Example 96b, 5-(2,4-difluorophenyl)-N-((3-fluoro-1-methylpyrrolidin-2-yl)methyl)-4-methyl-pyrimidin-2-amine], the figure is 0.099 µM. Same read-out and setting: as for `Cc1nc(NCC2N(C)CCC2(F)F)ncc1-c1ccc(F)cc1F` (single isomer, unassigned) [Example 84a, N-((3,3-difluoro-1-methylpyrrolidin-2-yl)methyl)-5-(2,4-difluorophenyl)-4-methyl-pyrimidin-2-amine], the figure is 1.53 µM; as for `Cc1nc(NC[C@H]2CCCN2CC(F)(F)F)ncc1-c1ccc(F)cc1F` [Example 95a, (R)-5-(2,4-difluorophenyl)-4-methyl-N-((1-(2,2,2-trifluoroethyl)pyrrolidin-2-yl)methyl)pyrimidin-2-amine], 0.048 µM. Still for that read-out and setting: for `CCN1CCCC1CNc1ncc(-c2ccc(F)cc2F)c(C)n1` (stereo not shown) [Example 85, 5-(2,4-difluorophenyl)-N-((1-ethylpyrrolidin-2-yl)methyl)-4-methyl-pyrimidin-2-amine] the value was 0.051 µM.

Take `Cc1nc(NC(C)[C@@H]2CCCN2C)ncc1-c1ccc(C(F)(F)F)cc1F` (single isomer, unassigned) [Example 132a, 5-(2-fluoro-4-(trifluoromethyl)phenyl)-4-methyl-N-((1*R)-1-((2S)-1-methylpyrrolidin-2-yl)ethyl)pyrimidin-2-amine]: the IC50 was 0.092 µM. Same read-out and setting: as for `COc1ccc(-c2cnc(NC3CCN(C(C)C)CC3)nc2C#N)c(F)c1` [Example 81, 5-(2-fluoro-4-methoxyphenyl)-2-((1-isopropylpiperidin-4-yl)amino) pyrimidine-4-carbonitrile], the figure is 0.098 µM. As to `COc1ccc(-c2nnc(NCC3CCCN3C)nc2C)c(F)c1` (single isomer, unassigned) [Example 18b, 6-(2-fluoro-4-methoxyphenyl)-5-methyl-N-((1-methylpyrrolidin-2-yl)methyl)-1,2,4-triazin-3-amine], the IC50 is 0.442 µM. The same measure, in the same setting: for `Cc1nc(NCCC2CCCN2C)ncc1-c1ccc(C(F)(F)F)cc1F` (stereo not shown) [Example 106, 5-(2-fluoro-4-(trifluoromethyl)phenyl)-4-methyl-N-(2-(1-methylpyrrolidin-2-yl)ethyl)pyrimidin-2-amine] the value was 0.054 µM; for `O=C(O)/C=C/C(=O)O.[2H]C([2H])([2H])N1CCC[C@H]1CNc1ncc(-c2ccc(C(F)(F)F)cc2F)c(C)n1` [Example 118, (S)-5-(2-fluoro-4-(trifluoromethyl)phenyl)-4-methyl-N-((1-(trideuteriomethyl)pyrrolidin-2-yl)methyl)pyrimidin-2-amine], 0.075 µM; for `Cc1nc(NC2CCN3CCCC23)ncc1-c1ccc(OC(F)(F)F)cc1F` (single isomer, unassigned) [Example 97c, N-(5-(2-fluoro-4-(trifluoromethoxy)phenyl)-4-methyl-pyrimidin-2-yl)hexahydro-1H-pyrrolizin-1-amine], 0.18 µM. With `CN(C)C1CCCC(Nc2ncc(-c3ccc(F)cc3F)c(C#N)n2)C1` (single isomer, unassigned) [Example 59b, 5-(2,4-difluorophenyl)-2-((3-(dimethylamino)cyclohexyl)amino) pyrimidine-4-carbonitrile], the IC50 came out at 0.134 µM. As to `CN1CCC(Nc2ncc(-c3ccc(F)cc3F)c(C#N)n2)CC1` [Example 66, 5-(2,4-difluorophenyl)-2-((1-methylpiperidin-4-yl)amino)pyrimidine-4-carbonitrile], the half-inhibitory concentration (IC50) was 0.094 µM. The same measure, in the same setting: as for `Cc1nc(NC2CCN(C)C2)ncc1-c1ccc(F)cc1F` (stereo not shown) [Example 29, 5-(2,4-difluorophenyl)-4-methyl-N-(1-methylpyrrolidin-3-yl)pyrimidin-2-amine], the figure is 0.095 µM. On the same count and under the same terms, as for `Cc1nc(NCC[C@H]2CCCN2C)ncc1-c1ccc(C(F)(F)F)cc1F` [Example 106a, (R)-5-(2-fluoro-4-(trifluoromethyl)phenyl)-4-methyl-N-(2-(1-methylpyrrolidin-2-yl)ethyl)pyrimidin-2-amine], the figure is 0.105 µM; as for `CN(C)C1CCC(Nc2ncc(-c3ccc(F)cc3F)c(C#N)n2)C1` (single isomer, unassigned) [Example 58b, 5-(2,4-difluorophenyl)-2-((3-(dimethylamino)cyclopentyl)amino) pyrimidine-4-carbonitrile], 0.056 µM; as for `COc1ccc(-c2cnc(NC3CCC(N(C)C)C3)nc2C#N)c(F)c1` (single isomer, unassigned) [Example 38a, 2-((3-(dimethylamino)cyclopentyl)amino)-5-(2-fluoro-4-methoxyphenyl) pyrimidine-4-carbonitrile], 0.059 µM.

For the compound `Cc1nc(NCC2COCCN2C)ncc1-c1ccc(F)cc1F` (single isomer, unassigned) [Example 79a, 5-(2,4-difluorophenyl)-4-methyl-N-((4-methylmorpholin-3-yl)methyl) pyrimidin-2-amine], the IC50 came to 0.42 µM. On the same count and under the same terms, for `Cc1nc(NC(C)[C@@H]2CCCN2)ncc1-c1ccc(C(F)(F)F)cc1F` (single isomer, unassigned) [Example 130b, 5-(2-fluoro-4-(trifluoromethyl)phenyl)-4-methyl-N-((1*S)-1-((2S)-pyrrolidin-2-yl)ethyl)pyrimidin-2-amine] the value was 0.049 µM; for `COc1ccc(-c2nnc(NC3CCCN(C(C)C)C3)nc2C)c(F)c1` (single isomer, unassigned) [Example 76a, 6-(2-fluoro-4-methoxyphenyl)-N-(1-isopropylpiperidin-3-yl)-5-methyl-1,2,4-triazin-3-amine], 0.118 µM. On the same count and under the same terms, for `Cc1nc(N[C@@H]2CCNC2)ncc1-c1ccc(C(F)(F)F)cc1F` [Example 110, (R)-5-(2-fluoro-4-(trifluoromethyl)phenyl)-4-methyl-N-(pyrrolidin-3-yl)pyrimidin-2-amine] the value was 0.054 µM; for `CN(C)C1CCCC(Nc2ncc(-c3ccc(F)cc3F)c(C#N)n2)C1` (single isomer, unassigned) [Example 59a, 5-(2,4-difluorophenyl)-2-((3-(dimethylamino)cyclohexyl)amino) pyrimidine-4-carbonitrile], 0.202 µM; for `COc1ccc(-c2cnc(NCC3CCN(C)C3)nc2C#N)c(F)c1` (stereo not shown) [Example 31, 5-(2-fluoro-4-methoxyphenyl)-2-(((1-methylpyrrolidin-3-yl)methyl)amino) pyrimidine-4-carbonitrile], 0.082 µM. On the same count and under the same terms, as for `Cc1nc(NC2CCC(S(C)(=O)=O)C2)ncc1-c1ccc(F)cc1F` (stereo not shown) [Example 52, 5-(2,4-difluorophenyl)-4-methyl-N-(3-(methylsulfonyl)cyclopentyl) pyrimidin-2-amine], the figure is 1.53 µM; as for `Cc1nc(NC[C@@H]2CCCN2)ncc1-c1ccc(C(F)(F)F)cc1F` [Example 103, (S)-5-(2-fluoro-4-(trifluoromethyl)phenyl)-4-methyl-N-(pyrrolidin-2-ylmethyl)pyrimidin-2-amine], 0.04 µM.

As for `Cc1nc(NCC2CCC(C)N2C)ncc1-c1ccc(C(F)(F)F)cc1F` (single isomer, unassigned) [Example 138d, N-(((2*S,5*R)-1,5-dimethylpyrrolidin-2-yl)methyl)-5-(2-fluoro-4-(trifluoromethyl)phenyl)-4-methyl-pyrimidin-2-amine], the IC50 turned out to be 0.025 µM. On to `Cc1nc(NC(C)[C@@H]2CCCN2)ncc1-c1ccc(C(F)(F)F)cc1F` (single isomer, unassigned) [Example 130a, 5-(2-fluoro-4-(trifluoromethyl)phenyl)-4-methyl-N-((1*R)-1-((2S)-pyrrolidin-2-yl)ethyl)pyrimidin-2-amine], for which the half-inhibitory concentration (IC50) came to 0.118 µM. As for `Cc1nc(NCCC2CCCN2C)nnc1-c1ccc(F)cc1F` (stereo not shown) [Example 21, 6-(2,4-difluorophenyl)-5-methyl-N-(2-(1-methylpyrrolidin-2-yl)ethyl)-1,2,4-triazin-3-amine], the IC50 turned out to be 0.599 µM. For the compound `Cc1nc(NCC2CCCN2C)nnc1-c1ccc(F)cc1F` (single isomer, unassigned) [Example 74b, 6-(2,4-difluorophenyl)-5-methyl-N-((1-methylpyrrolidin-2-yl)methyl)-1,2,4-triazin-3-amine], the IC50 was found to be 1.47 µM. Still for that read-out and setting: for `CN1CCCC(Nc2ncc(-c3ccc(F)cc3)cn2)C1` (stereo not shown) [Example 5, 5-(4-fluorophenyl)-N-(1-methylpiperidin-3-yl)pyrimidin-2-amine] the value was 0.635 µM; for `CN(C)C1CCC(Nc2ncc(-c3ccc(F)cc3F)c(C#N)n2)C1` (single isomer, unassigned) [Example 58a, 5-(2,4-difluorophenyl)-2-((3-(dimethylamino)cyclopentyl)amino) pyrimidine-4-carbonitrile], 0.038 µM; for `Cc1nc(NC2CCCC(N(C)C)C2)ncc1-c1ccc(F)cc1F` (single isomer, unassigned) [Example 55b, N^1-(5-(2,4-difluorophenyl)-4-methyl-pyrimidin-2-yl)-N^3,N^3-dimethylcyclohexane-1,3-diamine], 0.081 µM.

The assay is the same for the next values; noted with them: IC50 (μM), HEK cell line stably expressing the receptor; 10 min pre-incubation, nicotine EC80; 10-point curve, duplicate wells.
Regarding `Cc1nc(NC[C@H]2CCCCN2)ncc1-c1ccc(C(F)(F)F)cc1F` [Example 104a, (R)-5-(2-fluoro-4-(trifluoromethyl)phenyl)-4-methyl-N-(2-piperidinylmethyl)pyrimidin-2-amine], the IC50 turned out to be 0.104 µM.
